Tests used:
Cannabinoid receptor 2 [1] = target: T1, Cannabinoid receptor 2 (Homo sapiens, UniProt P34972); test: Binding affinity to CB2 receptor (unknown origin) assessed as inhibition constant measured after 90 mins
Cannabinoid receptor 1 [2] = target: T2, Cannabinoid receptor 1 (Homo sapiens, UniProt P21554); test: Displacement of [3H]CP55940 from CB1 receptor (unknown origin) assessed as inhibition constant measured after 90 mins
Cannabinoid receptor 1 [3] = target: Cannabinoid receptor 1 (Mus musculus, UniProt P47746); test: Displacement of [3H]CP55940 from mouse brain CB1 receptor assessed as inhibition constant
Cannabinoid receptor 1 [4] = target: T2, Cannabinoid receptor 1; test: Displacement of [3H]CP55940 from human CB1 receptor assessed as inhibition constant
Cannabinoid receptor 2 [5] = target: T1, Cannabinoid receptor 2; test: Displacement of [3H]HU-243 from human CB2 receptor assessed as inhibition constant

T2 sequence (P21554 whole entry): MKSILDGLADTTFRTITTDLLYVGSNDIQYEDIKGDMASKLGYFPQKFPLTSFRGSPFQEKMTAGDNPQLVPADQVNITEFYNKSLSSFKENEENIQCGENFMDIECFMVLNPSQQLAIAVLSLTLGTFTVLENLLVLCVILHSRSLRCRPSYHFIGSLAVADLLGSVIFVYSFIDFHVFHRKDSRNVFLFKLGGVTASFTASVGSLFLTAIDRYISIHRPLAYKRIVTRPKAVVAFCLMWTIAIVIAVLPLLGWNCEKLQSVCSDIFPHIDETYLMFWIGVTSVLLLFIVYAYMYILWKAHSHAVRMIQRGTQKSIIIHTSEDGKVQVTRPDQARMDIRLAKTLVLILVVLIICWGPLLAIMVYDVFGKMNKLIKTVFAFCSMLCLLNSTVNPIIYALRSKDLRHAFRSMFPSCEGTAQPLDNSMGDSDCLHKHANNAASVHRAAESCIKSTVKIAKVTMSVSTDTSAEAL
T1 sequence (P34972 whole entry): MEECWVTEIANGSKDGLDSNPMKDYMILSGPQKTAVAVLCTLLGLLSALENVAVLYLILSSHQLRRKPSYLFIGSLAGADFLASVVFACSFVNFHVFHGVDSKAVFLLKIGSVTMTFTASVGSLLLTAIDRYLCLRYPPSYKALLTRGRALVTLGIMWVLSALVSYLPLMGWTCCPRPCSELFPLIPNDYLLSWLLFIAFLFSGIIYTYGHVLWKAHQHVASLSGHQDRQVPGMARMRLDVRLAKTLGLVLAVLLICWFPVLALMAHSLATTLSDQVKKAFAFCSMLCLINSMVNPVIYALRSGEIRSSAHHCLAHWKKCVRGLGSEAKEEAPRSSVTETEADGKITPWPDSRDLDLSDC
Chain of Cannabinoid receptor 1 (Mus musculus, UniProt P47746) (P47746 whole entry): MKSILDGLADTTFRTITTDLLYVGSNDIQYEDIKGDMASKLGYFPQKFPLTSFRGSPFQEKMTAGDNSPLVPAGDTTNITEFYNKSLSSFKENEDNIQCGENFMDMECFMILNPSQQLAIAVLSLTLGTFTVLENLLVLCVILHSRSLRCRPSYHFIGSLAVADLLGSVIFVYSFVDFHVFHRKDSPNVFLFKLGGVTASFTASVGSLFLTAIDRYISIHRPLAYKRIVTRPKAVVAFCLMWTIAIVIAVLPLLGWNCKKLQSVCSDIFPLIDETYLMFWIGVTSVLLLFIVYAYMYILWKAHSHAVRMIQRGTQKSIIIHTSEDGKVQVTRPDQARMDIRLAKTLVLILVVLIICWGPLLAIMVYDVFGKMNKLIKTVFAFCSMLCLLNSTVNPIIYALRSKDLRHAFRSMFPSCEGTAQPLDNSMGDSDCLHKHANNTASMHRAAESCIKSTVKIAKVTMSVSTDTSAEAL

What does the source list for `CCCCCc1cc(O)c2c(c1)OC(C)(CCC=C(C)C)C=C2` (configuration not stated) [CANNABICHROMENE]?
Ki (Cannabinoid receptor 2 [1]): 200 nM; Ki (Cannabinoid receptor 1 [2]): 700 nM

Which Ki (Cannabinoid receptor 1 [3]) does the source give for `C=C(C)[C@@H]1CCC(C)=C[C@H]1c1c(O)cc(CCCCC)cc1O` [CANNABIDIOL] here?
The Ki was 4400 nM.

Which results are given for `CCCCCc1cc(O)c(C/C=C(\C)CCC=C(C)C)c(O)c1` [CANNABIGEROL]?
Ki (Cannabinoid receptor 1 [4]): 400 nM; Ki (Cannabinoid receptor 2 [5]): 100 nM

For `CCCCCc1cc(O)c2c(c1)OC(C)(C)c1ccc(C)cc1-2` [CANNABINOL], which Ki (Cannabinoid receptor 1 [4]) is on record?
The Ki was 100 nM.

For `CCCc1cc(O)c2c(c1)OC(C)(C)[C@@H]1CCC(C)=C[C@@H]21` [TETRAHYDROCANNABIVARIN], which Ki (Cannabinoid receptor 1 [4]) is on record?
The Ki was 80 nM.

Source: ChEMBL document CHEMBL6083178, “Chemistry and pharmacological aspects of furanoid cannabinoids and related compounds: Is furanoid cannabinoids open a new dimension towards the non-psychoactive cannabinoids?” (Eur J Med Chem, 2024)
